Experiment [1] has as its system T98G glioma cells. Briefly: MTT colorimetric assay, overall cell growth, T98G. Format: cell-based, human. The following applies: 72 hours of incubation, read-out: In Vitro IC50 Growth Inhibitory Values, T98G. The text has this:
(§1) The amount of formazan obtained at the end of the experiment, measured by means of a spectrophotometer, is directly proportional to the number of living cells. Optical density determination thus enabled a quantitative measurement of the effect of the investigated compounds as compared to the control condition (untreated cells) and/or to other reference compounds. Eleven human cancer cell lines and one mouse melanoma cell-line (B16F10) described in Table 2 were used in the following MTT tests. These cancer cell lines cover seven histological cancer types including prostate (PC3), glioma (Hs683, T98G, U373, melanoma (VM21, VM28), non-small-cell-lung (A549), breast (MCF-7), colon (LoVo) and oesophageal (OE21, OE33) cancers. […] Each cell line was seeded in its appropriate culture medium. The detailed experimental procedure was the following: after a 24-hour period of incubation at 37° C., the culture medium was replaced by 100 μl of fresh medium in which the tested compound was previously dissolved, at the following molar concentrations: 10^-8 […] and 10^-4 M. Each experiment was performed in sestuplicates (6 times). After 72 hours of incubation at 37° C. with (experimental conditions) or without (control condition) the compound to be tested, the medium was replaced by 100 μl MTT dissolved in RPMI (1640 without phenol red) at a concentration of 0.5 or 1 mg/ml. The micro-wells were subsequently incubated during 3 hours and a half at 37° C. and centrifuged at 1300 rpm during 10 minutes. MTT was removed and formazan crystals formed were dissolved in 100 μl DMSO. The micro-wells were shaken for 5 minutes and read on a spectrophotometer at wavelengths of 570 nm (maximal formazan absorbance). For each experimental condition, the mean optical density was calculated, allowing the determination of the percentage of remaining living cells in comparison to the control. […] The origin of all the cell lines we used, along with their biological characteristics, and the validation procedures of the MTT colorimetric assay as employed here are fully detailed in Van Quaquebeke et al., 2005, J Med Chem 48:849-856; […]

Experiment [2] deals with B16F10 melanoma cell-line. The experiment can be described thus: MTT colorimetric assay, overall cell growth, B16F10. Format: cell-based, mouse. The following applies: read-out: In Vitro IC50 Growth Inhibitory Values, B16F10.
Excerpt: as §1
Background: Tetrazolium dyes change colour on reduction, which living cells bring about.

The subject of experiment [3] is LoVo colon cancer cells. The experiment can be described thus: MTT colorimetric assay, overall cell growth, LoVo. Format: cell-based, human. To be noted: 72 hours of incubation, read-out: In Vitro IC50 Growth Inhibitory Values, LoVo.
Excerpt: as §1

The test system of experiment [4] is Eleven human cancer cell lines. The experiment can be described thus: MTT colorimetric assay, across the eleven human cancer cell lines. Format: cell-based. To be noted: mean ± SEM over the 11 human cancer cell lines, MTT, 72 hours; read-out: In Vitro IC50 Growth Inhibitory Values, m ± SEM.
Excerpt: as §1

The subject of experiment [5] is PC-3 prostate cancer cells. Briefly: MTT colorimetric assay, overall cell growth, PC-3. Format: cell-based, human. The following applies: 72 hours of incubation, read-out: In Vitro IC50 Growth Inhibitory Values, PC-3.
Excerpt: as §1

For experiment [6], the system named is A549 non-small-cell-lung cancer cells. The experiment can be described thus: MTT colorimetric assay, overall cell growth, A549. Format: cell-based, human. The following applies: read-out: In Vitro IC50 Growth Inhibitory Values, A549.
Excerpt: as §1

The test system of experiment [7] is OE33 oesophageal cancer cells. Briefly: MTT colorimetric assay, overall cell growth, OE33. Format: cell-based, human. The following applies: read-out: In Vitro IC50 Growth Inhibitory Values, OE33.
Excerpt: as §1

Experiment [8] deals with U373 glioblastoma cells. The experiment can be described thus: MTT colorimetric assay, overall cell growth, U373. To be noted: 72 hours of incubation, read-out: In Vitro IC50 Growth Inhibitory Values, U373. Format: cell-based, human.
Excerpt: as §1

The test system of experiment [9] is VM21 melanoma cells. The experiment can be described thus: MTT colorimetric assay, overall cell growth, VM21. Format: cell-based, human. To be noted: MTT, 72 hours of incubation, read-out: In Vitro IC50 Growth Inhibitory Values, VM21.
Excerpt: as §1

For experiment [10], the system named is VM48 melanoma cells. Briefly: MTT colorimetric assay, overall cell growth, VM48. Format: cell-based, human. The following applies: MTT, 72 hours of incubation, read-out: In Vitro IC50 Growth Inhibitory Values, VM48.
In experiment [11] the test system is OE21 oesophageal cancer cells. Briefly: MTT colorimetric assay, overall cell growth, OE21. To be noted: read-out: In Vitro IC50 Growth Inhibitory Values, OE21. Format: cell-based, human.
Excerpt: as §1

Experiment [12] relates to MCF-7 breast cancer cells. The experiment can be described thus: MTT colorimetric assay, overall cell growth, MCF-7. Format: cell-based, human. The following applies: read-out: In Vitro IC50 Growth Inhibitory Values, MCF-7.
Excerpt: as §1

Experiment [13] concerns Hs683 glioma cells. The experiment can be described thus: MTT colorimetric assay, overall cell growth, Hs683. Format: cell-based, human. To be noted: read-out: In Vitro IC50 Growth Inhibitory Values, Hs683.
Excerpt: as §1

[14] abbreviates: Mus musculus, B16-F10, 72 hours of incubation.
Where [15] appears, read: Homo sapiens, A549, 72 hours of incubation.
[16] abbreviates: Homo sapiens, OE33, 72 hours of incubation.
Setting [17] is: Homo sapiens, OE21, 72 hours of incubation.
The mark [18] stands for this setting: Homo sapiens, MCF7, 72 hours of incubation.
Where [19] appears, read: Homo sapiens, Hs 683, 72 hours of incubation.

Like-named read-outs stand apart in the source and are kept apart here.

With `COc1cc(C(=O)O[C@H]2CC[C@H](OC(=O)c3ccc(O)c(OC)c3)C2)ccc1O` (stereo in doubt) [DLT18, S,S-trans-cyclopentane-1,3-diyl bis-(4-hydroxy-3-methoxybenzoate)], the IC50 in experiment [1] was > 100 µM; in experiment [2] (72 hours of incubation), 30 µM; in [3] it was 41 µM; in experiment [4] it was > 100 µM; in experiment [5], 43 µM; in experiment [6] (72 hours of incubation), 43 µM. The IC50 in experiment [7] (72 hours of incubation) was 64 µM; in [8], > 100 µM; in experiment [9], > 100 µM; in experiment [10] it was 59 µM; in [11] (72 hours of incubation) it was 53 µM; in [12] (72 hours of incubation) it was 44 µM. Also, the IC50 in experiment [13] (72 hours of incubation) is 46 µM.

Turning to `COc1cc(C(=O)O[C@@H]2CCC[C@H]2OC(=O)c2ccc(O)c(OC)c2)ccc1O` (stereo in doubt) [DLT16, R,R-trans-cyclopentane-1,2-diyl bis-(4-hydroxy-3-methoxybenzoate)], the IC50 in experiment [1] was found to be 32 µM; in [2] (72 hours of incubation), 4 µM; in experiment [3] it was 29 µM; in [4], 27 µM; in [5], 25 µM; in experiment [6] (72 hours of incubation), 21 µM. Further, the IC50 in experiment [7] (72 hours of incubation) was determined as 28 µM; in [8], 31 µM; in experiment [9], 26 µM; in experiment [10], 29 µM; in experiment [11] (72 hours of incubation), 27 µM; in experiment [12] (72 hours of incubation), 25 µM. For the same compound, the IC50 in [13] (72 hours of incubation) turned out to be 22 µM.

As to `O=C(O[C@@H]1CCCC[C@H]1OC(=O)c1ccc(O)c(Cl)c1)c1ccc(O)c(Cl)c1` (relative stereo) [DLT30, R,R-trans-cyclohexane-1,2-diyl bis-(4-hydroxy-3-chlorobenzoate)], the IC50 in [1] was found to be 11 µM; in experiment [2] (72 hours of incubation) it was 1 µM; in [3], 26 µM; in [4], 32 µM; in [5] it was 44 µM; in [6] (72 hours of incubation), 18 µM. Moreover, the IC50 in experiment [7] (72 hours of incubation) came out at 34 µM; in experiment [8] it was 31 µM; in experiment [9] it was 53 µM; in [10], 58 µM; in experiment [11] (72 hours of incubation), 41 µM; in [12] (72 hours of incubation), 21 µM. In [13] (72 hours of incubation), the IC50 turned out to be 10 µM.

Take `O=C(O[C@H]1CCCC[C@@H]1OC(=O)c1cc(O)c(O)c(O)c1)c1cc(O)c(O)c(O)c1` (stereo in doubt) [DLT33, S,S-trans-cyclohexane 1,2-diyl bis-(3,4,5-trihydroxybenzoate)]: the IC50 in experiment [1] came out at 38 µM; in experiment [2] (72 hours of incubation), 22 µM; in experiment [3] it was 43 µM; in experiment [4], 43 µM; in experiment [5] it was 44 µM; in [6] (72 hours of incubation) it was 30 µM. Besides, the IC50 was 66 µM in experiment [7] (72 hours of incubation); 35 µM in [8]; 38 µM in experiment [9]; 51 µM in experiment [10]; 43 µM in [11] (72 hours of incubation); 58 µM in experiment [12] (72 hours of incubation). For the same compound, the IC50 in experiment [13] (72 hours of incubation) turned out to be 32 µM.

With `COc1cc(C(=O)NCCCCCNC(=O)c2ccc(O)c(OC)c2)ccc1O` [DLT37, N,N′-Pentane-1,5-diyl bis-(4-hydroxy-3-methoxybenzamide)], the IC50 is 55 µM in [1]; > 100 µM in [2] (72 hours of incubation); 41 µM in experiment [3]; > 100 µM in experiment [4]; > 100 µM in [5]; 52 µM in [6] (72 hours of incubation). The IC50 is > 100 µM in experiment [7] (72 hours of incubation); 91 µM in [8]; > 100 µM in [9]; > 100 µM in [10]; 81 µM in experiment [11] (72 hours of incubation); 71 µM in experiment [12] (72 hours of incubation). In addition, the IC50 in [13] (72 hours of incubation) turned out to be 80 µM.

For `COc1cc(C(=O)NC2CCC(NC(=O)c3ccc(O)c(OC)c3)CC2)ccc1O` (mixture of isomers) [DLT40, N,N′-cis/trans-cyclohexane-1,4-diyl bis-(4-hydroxy-3-methoxybenzamide)], the IC50 in experiment [1] was > 100 µM; in experiment [2] (72 hours of incubation), 36 µM; in experiment [3], 78 µM; in experiment [4], > 100 µM; in [5], 87 µM; in [6] (72 hours of incubation), > 100 µM. The IC50 in experiment [7] (72 hours of incubation) is > 100 µM; in experiment [8] it was > 100 µM; in experiment [9] it was > 100 µM; in experiment [10], 98 µM; in experiment [11] (72 hours of incubation) it was 81 µM; in experiment [12] (72 hours of incubation) it was 80 µM. In addition, the IC50 in experiment [13] (72 hours of incubation) worked out at 95 µM.

With `O=C(OCCOC(=O)c1ccc(O)c(Cl)c1)c1ccc(O)c(Cl)c1` [DLT23, Ethane-1,2-diyl bis-(4-hydroxy-3-chlorobenzoate)], the IC50 in experiment [1] (Homo sapiens, T98G) was 45 µM; in experiment [2] (setting [14]) it was 27 µM; in experiment [3] (Homo sapiens, LoVo), 48 µM; in experiment [4], 57 µM; in [5] (Homo sapiens), 81 µM; in [6] (setting [15]), 72 µM. Also, the IC50 in [7] (setting [16]) is 73 µM; in experiment [8] (Homo sapiens, U373 MG) it was 52 µM; in [9] (Homo sapiens), 34 µM; in experiment [10] (Homo sapiens) it was 84 µM; in [11] (setting [17]), 31 µM; in [12] (setting [18]) it was 53 µM. Moreover, the IC50 in experiment [13] (setting [19]) is 53 µM.

In the case of `O=C(OCCOC(=O)c1cc(O)c(O)c(O)c1)c1cc(O)c(O)c(O)c1` [DLT31, Ethane-1,2-diyl bis-(3,4,5-trihydroxybenzoate)], the IC50 in experiment [1] (Homo sapiens, T98G) was 28 µM; in experiment [2] (setting [14]), 41 µM; in experiment [3] (Homo sapiens, LoVo), 29 µM; in [4] it was 30 ± 3 µM; in [5] (Homo sapiens), 30 µM; in experiment [6] (setting [15]), 23 µM. The IC50 in experiment [7] (setting [16]) came to 19 µM; in experiment [8] (Homo sapiens, U373 MG) it was 28 µM; in experiment [9] (Homo sapiens), 37 µM; in experiment [10] (Homo sapiens), 35 µM; in experiment [11] (setting [17]), 16 µM; in experiment [12] (setting [18]), 55 µM. In experiment [13] (setting [19]), the IC50 worked out at 27 µM.

As usually defined, the IC50 is the concentration that gives 50% inhibition.

These data come from patent US20110280940A1, “Di-Vanilloyl And Tri-Vanilloyl Derivatives For Use In Anti-Cancer Therapy” (priority 2008, published 2011).
